The NIST ThermoML archive (doi:10.1016/j.tca.2018.01.023)
“And” between values parts separate entries of the source, which are not always exact repeats. Equal values may be shown once.

Assay: molar heat capacity at constant pressure
Conditions: 101.33 kPa, Crystal, Small sample (50 mg) DSC

[Ca+2].[O]=[Mo](=[O])([O-])[O-] [calcium molybdate(VI)]
Conditions | molar heat capacity at constant pressure
596.4 K | 141.2 J/K/mol
597 K | 142.1 J/K/mol
597.4 K | 141.3 J/K/mol
598 K | 142.2 J/K/mol
598.4 K | 141.3 J/K/mol
599 K | 142.2 J/K/mol
599.4 K | 141.3 J/K/mol
600 K | 141.5 J/K/mol and 142.3 J/K/mol
600.4 K | 141.3 J/K/mol
601 K | 142.4 J/K/mol
601.4 K | 141.4 J/K/mol
602 K | 142.4 J/K/mol
602.4 K | 141.4 J/K/mol
603 K | 142.5 J/K/mol
603.4 K | 141.4 J/K/mol
604.1 K | 142.4 J/K/mol
604.4 K | 141.4 J/K/mol
605.1 K | 142.4 J/K/mol
605.4 K | 141.4 J/K/mol
606.1 K | 142.4 J/K/mol
606.4 K | 141.5 J/K/mol
607.1 K | 142.5 J/K/mol
607.4 K | 141.5 J/K/mol
608.1 K | 142.5 J/K/mol
608.4 K | 141.5 J/K/mol
609.1 K | 142.6 J/K/mol
609.4 K | 141.5 J/K/mol
610.1 K | 142.7 J/K/mol
610.4 K | 141.5 J/K/mol
611.1 K | 142.7 J/K/mol
611.4 K | 141.5 J/K/mol
612.1 K | 142.7 J/K/mol
612.4 K | 141.5 J/K/mol
613.1 K | 142.8 J/K/mol
613.4 K | 141.6 J/K/mol
614.1 K | 142.8 J/K/mol
614.4 K | 141.6 J/K/mol
615.1 K | 142.8 J/K/mol
615.4 K | 141.6 J/K/mol
616.1 K | 142.9 J/K/mol
616.4 K | 141.6 J/K/mol
617.1 K | 142.9 J/K/mol
617.4 K | 141.6 J/K/mol
618.1 K | 142.9 J/K/mol
618.4 K | 141.6 J/K/mol
619.1 K | 143 J/K/mol
619.4 K | 141.5 J/K/mol
620 K | 142.4 J/K/mol
620.1 K | 143.1 J/K/mol
620.4 K | 141.5 J/K/mol
621.1 K | 143.2 J/K/mol
621.4 K | 141.4 J/K/mol
622.1 K | 143.2 J/K/mol
622.4 K | 141.5 J/K/mol
623.1 K | 143.3 J/K/mol
623.4 K | 141.5 J/K/mol
624.1 K | 143.3 J/K/mol
624.4 K | 141.6 J/K/mol
624.5 K | 143.3 J/K/mol
625.4 K | 141.6 J/K/mol
626.4 K | 141.7 J/K/mol
627.4 K | 141.7 J/K/mol
628.4 K | 141.7 J/K/mol
629.4 K | 141.8 J/K/mol
630.4 K | 141.8 J/K/mol
631.4 K | 141.9 J/K/mol
632.4 K | 142.1 J/K/mol
633.4 K | 142.2 J/K/mol
634.4 K | 142.3 J/K/mol
635.4 K | 142.3 J/K/mol
636.4 K | 142.4 J/K/mol
637.4 K | 142.4 J/K/mol
638.4 K | 142.4 J/K/mol
639.4 K | 142.5 J/K/mol
640 K | 143.2 J/K/mol
640.4 K | 142.6 J/K/mol
641.4 K | 142.7 J/K/mol
642.4 K | 142.8 J/K/mol
643.4 K | 142.8 J/K/mol
644.4 K | 142.9 J/K/mol
645.4 K | 142.9 J/K/mol
646.4 K | 143 J/K/mol
647.4 K | 143 J/K/mol
648.4 K | 143 J/K/mol
649.4 K | 143.1 J/K/mol
650.4 K | 143.2 J/K/mol
651.4 K | 143.2 J/K/mol
652.4 K | 143.3 J/K/mol
653.4 K | 143.4 J/K/mol
654.4 K | 143.4 J/K/mol
655.4 K | 143.5 J/K/mol
656.4 K | 143.6 J/K/mol
657.4 K | 143.6 J/K/mol
658.4 K | 143.7 J/K/mol
659.4 K | 143.8 J/K/mol
660 K | 144 J/K/mol
660.4 K | 143.8 J/K/mol
661.4 K | 143.9 J/K/mol
662.4 K | 144 J/K/mol
663.4 K | 144 J/K/mol
664.4 K | 144.1 J/K/mol
665.4 K | 144.2 J/K/mol
666.4 K | 144.2 J/K/mol
667.4 K | 144.3 J/K/mol
668.4 K | 144.3 J/K/mol
669.4 K | 144.4 J/K/mol
670.4 K | 144.4 J/K/mol
671.4 K | 144.4 J/K/mol
672.4 K | 144.5 J/K/mol
673.4 K | 144.5 J/K/mol
674.4 K | 144.5 J/K/mol
675.4 K | 144.5 J/K/mol
676.4 K | 144.6 J/K/mol
677.4 K | 144.6 J/K/mol
678.4 K | 144.7 J/K/mol
679.4 K | 144.8 J/K/mol
680 K | 144.7 J/K/mol
680.4 K | 144.9 J/K/mol
681.4 K | 144.9 J/K/mol
682.4 K | 145 J/K/mol
683.4 K | 145.1 J/K/mol
684.4 K | 145.2 J/K/mol
685.4 K | 145.3 J/K/mol
686.4 K | 145.3 J/K/mol
687.4 K | 145.4 J/K/mol
688.4 K | 145.4 J/K/mol
689.4 K | 145.5 J/K/mol
690.4 K | 145.5 J/K/mol
691.4 K | 145.6 J/K/mol
692.4 K | 145.6 J/K/mol
693.4 K | 145.7 J/K/mol
694.4 K | 145.8 J/K/mol
695.4 K | 145.8 J/K/mol
696.4 K | 145.9 J/K/mol
697.4 K | 145.9 J/K/mol
698.4 K | 145.9 J/K/mol
699.4 K | 145.9 J/K/mol
700 K | 145.4 J/K/mol
700.4 K | 145.9 J/K/mol
701.4 K | 145.9 J/K/mol
702.4 K | 145.9 J/K/mol
703.4 K | 145.9 J/K/mol
704.4 K | 145.9 J/K/mol
705.4 K | 145.9 J/K/mol
706.4 K | 145.8 J/K/mol
707.4 K | 145.8 J/K/mol
708.4 K | 145.8 J/K/mol
709.4 K | 145.9 J/K/mol
710.4 K | 145.9 J/K/mol
711.4 K | 145.9 J/K/mol
712.4 K | 146 J/K/mol
713.4 K | 146 J/K/mol
714.4 K | 146 J/K/mol
715.4 K | 146 J/K/mol
716.4 K | 146.1 J/K/mol
717.4 K | 146.2 J/K/mol
718.4 K | 146.2 J/K/mol
719.4 K | 146.3 J/K/mol
720 K | 146.1 J/K/mol
720.4 K | 146.3 J/K/mol
721.4 K | 146.3 J/K/mol
722.4 K | 146.3 J/K/mol
723.4 K | 146.4 J/K/mol
724.4 K | 146.4 J/K/mol
725.4 K | 146.5 J/K/mol
726.4 K | 146.5 J/K/mol
727.4 K | 146.6 J/K/mol
728.4 K | 146.6 J/K/mol
729.4 K | 146.6 J/K/mol
730.4 K | 146.7 J/K/mol
731.4 K | 146.7 J/K/mol
732.4 K | 146.7 J/K/mol
733.4 K | 146.7 J/K/mol
734.4 K | 146.7 J/K/mol
735.4 K | 146.7 J/K/mol
736.4 K | 146.7 J/K/mol
737.4 K | 146.7 J/K/mol
738.4 K | 146.8 J/K/mol
739.4 K | 146.9 J/K/mol
740 K | 146.8 J/K/mol
740.4 K | 147 J/K/mol
741.4 K | 147 J/K/mol
742.4 K | 147.1 J/K/mol
743.4 K | 147.1 J/K/mol
744.4 K | 147.1 J/K/mol
745.4 K | 147.2 J/K/mol
746.4 K | 147.2 J/K/mol
747.4 K | 147.3 J/K/mol
748.4 K | 147.3 J/K/mol
749.4 K | 147.3 J/K/mol
750.4 K | 147.3 J/K/mol
751.4 K | 147.4 J/K/mol
752.4 K | 147.4 J/K/mol
753.4 K | 147.4 J/K/mol
754.4 K | 147.5 J/K/mol
755.4 K | 147.5 J/K/mol
756.4 K | 147.6 J/K/mol
757.4 K | 147.7 J/K/mol
758.4 K | 147.7 J/K/mol
759.4 K | 147.8 J/K/mol
760 K | 147.4 J/K/mol
760.4 K | 147.8 J/K/mol
761.4 K | 147.8 J/K/mol
762.4 K | 147.7 J/K/mol
763.4 K | 147.7 J/K/mol
764.4 K | 147.7 J/K/mol
765.4 K | 147.8 J/K/mol
766 K | 147.5 J/K/mol
766.4 K | 147.9 J/K/mol
